Source: patent publication US20260015574A1, “METHODS FOR SHORTENING LAG PHASE DURATION IN MICROORGANISMS” (YEDA RESEARCH AND DEVELOPMENT CO. LTD., priority 2022, published 2026)

Legend:
[1] = system: marine bacterium Vibrio sp.; experiment: Lag phase shortening in Vibrio sp.; assay type: cell-based; details: 2 μM compound
Method: The bacterial strain Phaeobacter inhibens DSM 17395 was purchased from the German collection of microorganisms and cell cultures (DSMZ, Braunschweig, Germany) and stored at −80° C. with 20% glycerol. Routine cultivation of P. inhibens was conducted at 30° C. in artificial seawater medium (ASW) based on Goyet and Poisson (1989). The ASW medium contained mineral salts (NaCl, 409.41 mM; Na2SO4, 28.22 mM; KCl, 9.08 mM; KBr, 0.82 mM; NaF, 0.07 mM; Na2CO3, 0.20 mM; NaHCO3, 2 mM; MgCl2, 50.66 mM; SrCl2, 0.09 mM), L1 vitamins (thiamine HCl, 100 μg/L; biotin, 0.5 μg/L; vitamin B12, […]), L1 trace elements (Na2EDTA·2H2O, 4.36 mg/L; FeCl3·6H2O, 3.15 mg/L; MnCl2·4H2O, 178.1 μg/L; ZnSO4·7H2O, 23.0 μg/L; CoCl2·6H2O, 11.9 μg/L; CuSO4·5H2O, 2.5 μg/L; Na2MoO4·2H2O, 19.9 μg/L; H2SeO3, 1.29 μg/L; NiSO4·6H2O, 2.63 μg/L; Na3 VO4, 1.84 μg/L; K2CrO4, 1.94 μg/L), and L1 nutrients (NaNO3, 882 μM; NaH2PO4, 36.22 μM). ASW was adjusted to pH 8 using HCl. […] A 96-well Tecan Infinite M Plex plate reader was used for high-resolution monitoring of bacterial growth dynamics at 30° C. […] The growth of bacteria in co-culture with algae was monitored by counting colony forming units (CFU) on ½ YTSS agar plates. The growth of algae was monitored with a CellStream flow cytometer (Merck, Darmstadt, Germany). […]

[2] = system: bacteria that are plant-associated; experiment: Lag phase shortening in plant-associated bacteria; assay type: cell-based
Text: To explore whether lag phase shortening is a general mechanism among bacteria, the inventors tested the effect of methylated compounds in bacteria with different lifestyles. […] Since methylated compounds are a hallmark of photosynthesizing organisms, the inventors next tested a variety of bacteria that are plant-associated. […] Finally, to establish the prevalence of lag phase shortening among bacteria, the inventors tested the model bacterium E. coli. This bacterium is not commonly found associated with photosynthesizing organisms, and thus, is unlikely to respond to algal metabolites. […] The synchrony between specific compounds and different groups of bacteria may reflect the natural context […].

[3] = system: methionine synthesis activity in P. inhibens protein crude extracts; experiment: Methionine synthesis activity assay with P. inhibens protein crude extracts; assay type: biochemical, Phaeobacter inhibens; details: crude extracts of stationary bacterial cells treated with 1 μM DMSP for 2 hours; LC/MS
Method: The bacterium P. inhibens DSM 17395 was cultivated in 100 mL ASW with 5.5 mM glucose until reaching stationary phase, and then treated with 1 μM DMSP for 2 hours. Cell pellets of control and treated bacteria were harvested by 10 min centrifugation (15,000 rpm) at 4° C. The pellets were washed with buffer A (50 mM Hepes-KOH PH 7.5), resuspended in buffer B (50 mM Hepes-KOH PH 7.5, 10 mM β-mercaptoethanol, 1 mM EDTA) and disrupted by 5 min bead beating at 30 s^−1 with 300 mg silica beads (Mixer Mill MM-400, Retsch, Haan, Germany). The supernatant was collected by 5 min centrifugation (15,000 rpm). To measure the activity of enzymatic DMSP demethylation and methionine formation, 0.5 mL crude extract (1 mg/mL protein; determined with Bio-Rad protein assay, Hercules, California, U.S.) were incubated for 1 h with 1 mL Buffer C (60 mM PPB, 4.5 mM homocysteine, 4.5 mM DMSP, pH 7.5). The reaction mix was snap frozen in liquid nitrogen, and subsequently analyzed for product formation using LC/MS (FIG. 10).
To further elucidate the fate of methyl groups, the inventors analyzed the transcriptome of DMSP-treated P. inhibens bacteria during the lag phase, and compared it to untreated control cultures. […]

C[S+](C)CCC(=O)[O-] [DMSP, dimethylsulfoniopropionate]
lag phase shortening [1]: induction of the lag phase shortening | lag phase shortening [2]: to slightly less extent | methionine synthesis activity [3]: elevated
